{"source": "patent US12076363B2", "about": "“Peptide epoxyketone proteasome inhibitors in combination with PIM kinase inhibitors for treatment of cancers” (ONYX PHARMACEUTICALS, INC., priority 2013, dated 2024)", "key": {"PIM-2 [1]": {"test_system": "PIM-2", "assay": "PIM-2 ubiquitination (K-ε-GG ubiquitin remnant profiling) after proteasome inhibitor treatment, U266 cells", "assay_type": "cell-based", "conditions": "PIM-2 lysine 61; U266 (4 hr); 125 nM; vs DMSO control", "method": "(§1) Multiple myeloma cells were used to identify pro-survival proteins that were stabilized upon carfilzomib exposure by monitoring an increase in ubiquitination at specific sites associated with degradation. Two multiple myeloma cell lines, U266 and NCI-H929, were treated for 1 and 4 hours at 125 nM concentration of carfilzomib and bortezomib. DMSO treated cells were used as a control. The concentrations of active agents used were set at the IC80 of chymotrypsin activity inhibition and 48 hr cytotoxicity. The subunit inhibition profile obtained for these concentrations in vitro mimicked the subunit inhibition profile for carfilzomib in patients treated with a dose of 27 mg/m^2. Washed cell pellets were processed and profiled for ubiquitin modified proteins using a specific di-glycine antibody (PTMScan® Ubiquitin Remnant Motif (K-ε-GG) Kit #5562) that recognizes all lysine ubiquitin linkages on ubiquitin ligase substrates. All lysines on a protein that are modified with ubiquitin can be identified by this approach, and the lysines distal from the phosphorylation sites can then be associated with degradation. […] The increase in ubiquitin was also time dependent in NCI-H929 (Table 1)."}, "PIM-2 [2]": {"test_system": "PIM-2", "assay": "PIM-2 ubiquitination (K-ε-GG ubiquitin remnant profiling) after proteasome inhibitor treatment, NCI-H929 cells", "assay_type": "cell-based", "conditions": "PIM-2 lysine 61, 125 nM, vs DMSO control", "method": "as §1"}}}
{"compound": "CC(C)C[C@H](NC(=O)[C@H](Cc1ccccc1)NC(=O)c1cnccn1)B(O)O", "note": "[BTZ, bortezomib]", "values": [{"measurement": "Ubiquitin fold increases", "setting": "PIM-2 [1]", "result": 31.5, "unit": "fold"}, {"measurement": "Ubiquitin fold increases", "setting": "PIM-2 [2]; H929 (1 hr)", "result": 11, "unit": "fold"}, {"measurement": "Ubiquitin fold increases", "setting": "PIM-2 [2]; H929 (4 hr)", "result": 21.4, "unit": "fold"}]}
{"compound": "CC(C)C[C@H](NC(=O)[C@H](CCc1ccccc1)NC(=O)CN1CCOCC1)C(=O)N[C@@H](Cc1ccccc1)C(=O)N[C@@H](CC(C)C)C(=O)[C@@]1(C)CO1", "note": "[CFZ, carfilzomib]", "values": [{"measurement": "Ubiquitin fold increases", "setting": "PIM-2 [1]", "result": 34.6, "unit": "fold"}, {"measurement": "Ubiquitin fold increases", "setting": "PIM-2 [2]; H929 (1 hr)", "result": 10.7, "unit": "fold"}, {"measurement": "Ubiquitin fold increases", "setting": "PIM-2 [2]; H929 (4 hr)", "result": 24.9, "unit": "fold"}]}
